Experimental data reported in patent US20250163104A1, “MACROCYCLIC IMMUNOMODULATORS” (priority 2021, published 2025).
Where a SMILES comes first, the peptide text is derived from it. Bridges are numbered along the chain shown (N, C = ends). [ ]: non-standard residue; d: D form. The star is where a group is joined. Phe(4-CONH2) = NC(=O)c1ccc(C[C@H](N)C(=O)O)cc1; Bip = N[C@@H](Cc1ccc(-c2ccccc2)cc1)C(=O)O; Phe(3-Me) = Cc1cccc(C[C@H](N)C(=O)O)c1; Val(3-OH) = CC(C)(O)[C@H](N)C(=O)O; Hyp = O=C(O)[C@@H]1C[C@@H](O)CN1; 4Pal = N[C@@H](Cc1ccncc1)C(=O)O; 2Thi = N[C@@H](Cc1cccs1)C(=O)O; Cha = N[C@@H](CC1CCCCC1)C(=O)O; Carboxymethyl = O=C(O)C*; Orn = NCCC[C@H](N)C(=O)O; Dab = NCC[C@H](N)C(=O)O; Dap = NC[C@H](N)C(=O)O; Ac3c = NC1(C(=O)O)CC1; Piv = CC(C)(C)C(=O)*

The compounds below were run against T1, human PD-1 / PD-L1-Ig binding on Jurkat cell line over-expressing human PD-1 (Jurkat-PD-1) (Homo sapiens, UniProt Q15116) (assay: Jurkat-PD-1 Cell Binding High-Content Screening Assay (CBA)). Settings: Jurkat-PD-1 cells, PE-labeled PD-L1-Ig 20 nM final; read-out: Jurkat HPD1_PDL1 IC50.
T1 construct: expressed in transfected cells; host or cells: Jurkat
T1 sequence (Q15116 25-288): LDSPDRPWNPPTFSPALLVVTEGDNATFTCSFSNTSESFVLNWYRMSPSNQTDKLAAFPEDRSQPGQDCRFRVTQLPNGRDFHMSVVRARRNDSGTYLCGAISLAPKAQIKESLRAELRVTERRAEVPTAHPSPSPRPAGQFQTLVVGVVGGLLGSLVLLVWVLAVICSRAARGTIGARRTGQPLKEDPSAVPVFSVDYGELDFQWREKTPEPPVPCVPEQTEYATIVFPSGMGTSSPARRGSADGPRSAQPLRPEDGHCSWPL
Type: cell-based
Method in brief: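 Compounds were preincubated with Jurkat-hPD-1 cells in DMEM plus 10% fetal calf serum for 2 h at 37° C. Phycoerythrin-labeled PD-L1-Ig (20 nM final) was then added for 1 hour. Cells were fixed in 4% paraformaldehyde with Hoechst 33342, and bound fluorescence was quantified by high-content imaging.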

Structure (SMILES) | IC50 [nM]
Cc1cccc(C[C@@H]2NC(=O)[C@H](CC(=O)O)NC(=O)[C@H](Cc3ccc(OCC(=O)O)cc3)NC(=O)[C@H](C(C)(C)O)NC(=O)CSC[C@@H](C(=O)N[C@@H](CCN)C(N)=O)NC(=O)[C@H](CO)NC(=O)[C@H](C(C)(C)O)NC(=O)[C@H](CC3CCCCC3)NC(=O)[C@H](CCN)NC(=O)[C@@H](CC(C)C)NC(=O)[C@H](CCCN)NC(=O)[C@H](Cc3ccc(OCC(=O)O)cc3)NC(=O)[C@H](Cc3ccc(-c4ccccc4)cc3)NC(=O)[C@H](Cc3ccc(OCC(=O)O)cc3)NC2=O)c1 [Compound 2058] ({CH2CO}-[Val(3-OH)]Y(Carboxymethyl)D[Phe(3-Me)]Y(Carboxymethyl)[Bip]Y(Carboxymethyl)[Orn][dL][Dab][Cha][Val(3-OH)]SC[Dab]-NH2; thioether N-14) | 25.2
Cc1cccc(C[C@@H]2NC(=O)[C@H](CC(=O)O)NC(=O)[C@H](Cc3ccc(OCC(=O)O)cc3)NC(=O)[C@@H]3C[C@@H](O)CN3C(=O)CSC[C@@H](C(=O)N[C@@H](CCN)C(N)=O)NC(=O)[C@H](CO)NC(=O)[C@H](C(C)(C)O)NC(=O)[C@H](CC3CCCCC3)NC(=O)[C@H](CCN)NC(=O)[C@@H](CC(C)C)NC(=O)[C@H](CCCN)NC(=O)[C@H](Cc3ccc(OCC(=O)O)cc3)NC(=O)[C@H](Cc3ccc(-c4ccccc4)cc3)NC(=O)[C@H](Cc3ccc(OCC(=O)O)cc3)NC2=O)c1 [Compound 2059] ({CH2CO}-[Hyp]Y(Carboxymethyl)D[Phe(3-Me)]Y(Carboxymethyl)[Bip]Y(Carboxymethyl)[Orn][dL][Dab][Cha][Val(3-OH)]SC[Dab]-NH2; thioether N-14) | 356
Cc1cccc(C[C@@H]2NC(=O)[C@H](CC(=O)O)NC(=O)[C@H](Cc3ccc(OCC(=O)O)cc3)NC(=O)[C@H](Cc3ccncc3)NC(=O)CSC[C@@H](C(=O)N[C@@H](CCNC(=O)C(C)(C)C)C(N)=O)NC(=O)[C@H]([C@@H](C)O)NC(=O)[C@H](C(C)C)NC(=O)[C@H](CC3CCCCC3)NC(=O)[C@H](CCN)NC(=O)[C@@H](CC(C)C)NC(=O)[C@H](CCN)NC(=O)[C@H](Cc3ccc(OCC(=O)O)cc3)NC(=O)[C@H](Cc3ccc(-c4ccccc4)cc3)NC(=O)[C@H](Cc3ccc(OCC(=O)O)cc3)NC2=O)c1 [Compound 2060] ({CH2CO}-[4Pal]Y(Carboxymethyl)D[Phe(3-Me)]Y(Carboxymethyl)[Bip]Y(Carboxymethyl)[Dab][dL][Dab][Cha]VTC[Dab](Piv)-NH2; thioether N-14) | 19.3
Cc1cccc(C[C@@H]2NC(=O)[C@H](CC(=O)O)NC(=O)[C@H](Cc3ccc(OCC(=O)O)cc3)NC(=O)[C@H](CN)NC(=O)CSC[C@@H](C(=O)N[C@@H](CCNC(=O)C(C)(C)C)C(N)=O)NC(=O)[C@H]([C@@H](C)O)NC(=O)[C@H](C(C)C)NC(=O)[C@H](CC3CCCCC3)NC(=O)[C@H](CCN)NC(=O)[C@@H](CC(C)C)NC(=O)[C@H](CCN)NC(=O)[C@H](Cc3ccc(OCC(=O)O)cc3)NC(=O)[C@H](Cc3ccc(-c4ccccc4)cc3)NC(=O)[C@H](Cc3ccc(OCC(=O)O)cc3)NC2=O)c1 [Compound 2061] ({CH2CO}-[Dap]Y(Carboxymethyl)D[Phe(3-Me)]Y(Carboxymethyl)[Bip]Y(Carboxymethyl)[Dab][dL][Dab][Cha]VTC[Dab](Piv)-NH2; thioether N-14) | 23.6
Cc1cccc(C[C@@H]2NC(=O)[C@H](CC(=O)O)NC(=O)[C@H](Cc3ccc(OCC(=O)O)cc3)NC(=O)[C@H](Cc3ccncc3)NC(=O)CSC[C@@H](C(=O)N[C@@H](CCN)C(N)=O)NC(=O)[C@H]([C@@H](C)O)NC(=O)[C@H](C(C)C)NC(=O)[C@H](CC3CCCCC3)NC(=O)[C@H](CCNC(=O)C(C)(C)C)NC(=O)[C@@H](CC(C)C)NC(=O)[C@H](CCN)NC(=O)[C@H](Cc3ccc(OCC(=O)O)cc3)NC(=O)[C@H](Cc3ccc(-c4ccccc4)cc3)NC(=O)[C@H](Cc3ccc(OCC(=O)O)cc3)NC2=O)c1 [Compound 2062] ({CH2CO}-[4Pal]Y(Carboxymethyl)D[Phe(3-Me)]Y(Carboxymethyl)[Bip]Y(Carboxymethyl)[Dab][dL][Dab](Piv)[Cha]VTC[Dab]-NH2; thioether N-14) | 12.8
Cc1cccc(C[C@@H]2NC(=O)[C@H](CC(=O)O)NC(=O)[C@H](Cc3ccc(OCC(=O)O)cc3)NC(=O)[C@H](CN)NC(=O)CSC[C@@H](C(=O)N[C@@H](CCN)C(N)=O)NC(=O)[C@H]([C@@H](C)O)NC(=O)[C@H](C(C)C)NC(=O)[C@H](CC3CCCCC3)NC(=O)[C@H](CCNC(=O)C(C)(C)C)NC(=O)[C@@H](CC(C)C)NC(=O)[C@H](CCN)NC(=O)[C@H](Cc3ccc(OCC(=O)O)cc3)NC(=O)[C@H](Cc3ccc(-c4ccccc4)cc3)NC(=O)[C@H](Cc3ccc(OCC(=O)O)cc3)NC2=O)c1 [Compound 2063] ({CH2CO}-[Dap]Y(Carboxymethyl)D[Phe(3-Me)]Y(Carboxymethyl)[Bip]Y(Carboxymethyl)[Dab][dL][Dab](Piv)[Cha]VTC[Dab]-NH2; thioether N-14) | 16.2
Cc1cccc(C[C@@H]2NC(=O)[C@H](CC(=O)O)NC(=O)[C@H](Cc3ccc(OCC(=O)O)cc3)NC(=O)[C@H](Cc3ccncc3)NC(=O)CSC[C@@H](C(=O)NC3(C(N)=O)CC3)NC(=O)[C@H](CO)NC(=O)[C@H](C(C)C)NC(=O)[C@H](CC3CCCCC3)NC(=O)[C@H](CCN)NC(=O)[C@@H](CC(C)C)NC(=O)[C@H](CCCN)NC(=O)[C@H](Cc3ccc(OCC(=O)O)cc3)NC(=O)[C@H](Cc3ccc(-c4ccccc4)cc3)NC(=O)[C@H](Cc3ccc(OCC(=O)O)cc3)NC2=O)c1 [Compound 2064] ({CH2CO}-[4Pal]Y(Carboxymethyl)D[Phe(3-Me)]Y(Carboxymethyl)[Bip]Y(Carboxymethyl)[Orn][dL][Dab][Cha]VSC[Ac3c]-NH2; thioether N-14) | 11.7
Cc1cccc(C[C@@H]2NC(=O)[C@H](CC(=O)O)NC(=O)[C@H](Cc3ccc(OCC(=O)O)cc3)NC(=O)[C@H]([C@@H](C)O)NC(=O)CSC[C@@H](C(=O)NC3(C(N)=O)CC3)NC(=O)[C@H](CO)NC(=O)[C@H](C(C)C)NC(=O)[C@H](CC3CCCCC3)NC(=O)[C@H](CCN)NC(=O)[C@@H](CC(C)C)NC(=O)[C@H](CCCN)NC(=O)[C@H](Cc3ccc(OCC(=O)O)cc3)NC(=O)[C@H](Cc3ccc(-c4ccccc4)cc3)NC(=O)[C@H](Cc3ccc(OCC(=O)O)cc3)NC2=O)c1 [Compound 2065] ({CH2CO}-TY(Carboxymethyl)D[Phe(3-Me)]Y(Carboxymethyl)[Bip]Y(Carboxymethyl)[Orn][dL][Dab][Cha]VSC[Ac3c]-NH2; thioether N-14) | 19.5
Cc1cccc(C[C@@H]2NC(=O)[C@H](CC(=O)O)NC(=O)[C@H](Cc3ccc(OCC(=O)O)cc3)NC(=O)[C@H](Cc3ccncc3)NC(=O)CSC[C@@H](C(=O)N[C@@H](CCN)C(N)=O)NC(=O)[C@H]([C@@H](C)O)NC(=O)[C@H](C(C)(C)O)NC(=O)[C@H](CC3CCCCC3)NC(=O)[C@H](CCN)NC(=O)[C@@H](CC(C)C)NC(=O)[C@H](CCCN)NC(=O)[C@H](Cc3ccc(OCC(=O)O)cc3)NC(=O)[C@H](Cc3ccc(-c4ccccc4)cc3)NC(=O)[C@H](Cc3ccc(OCC(=O)O)cc3)NC2=O)c1 [Compound 2066] ({CH2CO}-[4Pal]Y(Carboxymethyl)D[Phe(3-Me)]Y(Carboxymethyl)[Bip]Y(Carboxymethyl)[Orn][dL][Dab][Cha][Val(3-OH)]TC[Dab]-NH2; thioether N-14) | 6.1
Cc1cccc(C[C@@H]2NC(=O)[C@H](CC(=O)O)NC(=O)[C@H](Cc3ccc(OCC(=O)O)cc3)NC(=O)[C@H](Cc3cccs3)NC(=O)CSC[C@@H](C(=O)N[C@@H](CCN)C(N)=O)NC(=O)[C@H]([C@@H](C)O)NC(=O)[C@H](C(C)(C)O)NC(=O)[C@H](CC3CCCCC3)NC(=O)[C@H](CCN)NC(=O)[C@@H](CC(C)C)NC(=O)[C@H](CCCN)NC(=O)[C@H](Cc3ccc(OCC(=O)O)cc3)NC(=O)[C@H](Cc3ccc(-c4ccccc4)cc3)NC(=O)[C@H](Cc3ccc(OCC(=O)O)cc3)NC2=O)c1 [Compound 2067] ({CH2CO}-[2Thi]Y(Carboxymethyl)D[Phe(3-Me)]Y(Carboxymethyl)[Bip]Y(Carboxymethyl)[Orn][dL][Dab][Cha][Val(3-OH)]TC[Dab]-NH2; thioether N-14) | 6.3
Cc1cccc(C[C@@H]2NC(=O)[C@H](CC(=O)O)NC(=O)[C@H](Cc3ccc(OCC(=O)O)cc3)NC(=O)[C@H](Cc3ccncc3)NC(=O)CSC[C@@H](C(=O)N[C@@H](CCN)C(N)=O)NC(=O)[C@H](CCC(N)=O)NC(=O)[C@H](C(C)(C)O)NC(=O)[C@H](CC3CCCCC3)NC(=O)[C@H](CCN)NC(=O)[C@@H](CC(C)C)NC(=O)[C@H](CCCN)NC(=O)[C@H](Cc3ccc(OCC(=O)O)cc3)NC(=O)[C@H](Cc3ccc(-c4ccccc4)cc3)NC(=O)[C@H](Cc3ccc(OCC(=O)O)cc3)NC2=O)c1 [Compound 2068] ({CH2CO}-[4Pal]Y(Carboxymethyl)D[Phe(3-Me)]Y(Carboxymethyl)[Bip]Y(Carboxymethyl)[Orn][dL][Dab][Cha][Val(3-OH)]QC[Dab]-NH2; thioether N-14) | 8.2
Cc1cccc(C[C@@H]2NC(=O)[C@H](CC(=O)O)NC(=O)[C@H](Cc3ccc(OCC(=O)O)cc3)NC(=O)[C@H](Cc3ccc(C(N)=O)cc3)NC(=O)CSC[C@@H](C(=O)N[C@@H](CCN)C(N)=O)NC(=O)[C@H](CCC(N)=O)NC(=O)[C@H](C(C)(C)O)NC(=O)[C@H](CC3CCCCC3)NC(=O)[C@H](CCN)NC(=O)[C@@H](CC(C)C)NC(=O)[C@H](CCCN)NC(=O)[C@H](Cc3ccc(OCC(=O)O)cc3)NC(=O)[C@H](Cc3ccc(-c4ccccc4)cc3)NC(=O)[C@H](Cc3ccc(OCC(=O)O)cc3)NC2=O)c1 [Compound 2069] ({CH2CO}-[Phe(4-CONH2)]Y(Carboxymethyl)D[Phe(3-Me)]Y(Carboxymethyl)[Bip]Y(Carboxymethyl)[Orn][dL][Dab][Cha][Val(3-OH)]QC[Dab]-NH2; thioether N-14) | 7.2
